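Results reflect a 48-hour exposure of cells in 96-well plates to compound at five concentrations. At the GI50, growth is halved.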 The source made the active and inactive calls. Cut-off read from the data, not from the text of the source: active = GI50 up to about 1.1 µM and inactive = higher.
Legend:
Assay in all cases: NCI tumour cell line growth inhibition, 48 h
UO-31 = system: UO-31
HT-29 = system: HT-29
RXF 393 = system: RXF 393
Hs-578T = system: Hs-578T
A498 = system: A498
MDA-MB-435 = system: MDA-MB-435
COLO 205 = system: COLO 205
EKVX = system: EKVX
OVCAR-4 = system: OVCAR-4
CAKI-1 = system: CAKI-1
HOP-92 = system: HOP-92
UACC-257 = system: UACC-257
SW-620 = system: SW-620
SNB-19 = system: SNB-19
HL-60 = system: HL-60
SN12C = system: SN12C
OVCAR-5 = system: OVCAR-5
Malme-3M = system: Malme-3M

Compound	GI50 (UO-31)	GI50 (HT-29)	GI50 (RXF 393)	GI50 (Hs-578T)	GI50 (A498)	GI50 (MDA-MB-435)	GI50 (COLO 205)	GI50 (EKVX)	GI50 (OVCAR-4)	GI50 (CAKI-1)	GI50 (HOP-92)	GI50 (UACC-257)	GI50 (SW-620)	GI50 (SNB-19)	GI50 (HL-60)	GI50 (SN12C)	GI50 (OVCAR-5)	GI50 (Malme-3M)
Ic1cccc(/C=C/CN2CCN(CCOC(c3ccccc3)c3ccccc3)CC2)c1	13 µM (inactive)	6.47 µM (inactive)	10.7 µM (inactive)	28 µM (inactive)	16.7 µM (inactive)	14.4 µM (inactive)	8.51 µM (inactive)	17.7 µM (inactive)	17.5 µM (inactive)	17.5 µM (inactive)	14.4 µM (inactive)	15.7 µM (inactive)	26.7 µM (inactive)	16.3 µM (inactive)	8.91 µM (inactive)	13.9 µM (inactive)	16.7 µM (inactive)	18.9 µM (inactive)
COc1ccc(OC)c2c1C=C[C@H](C1(C)SCCS1)C2C(C)=O (some centres undefined)	24.2 µM (inactive)	18.7 µM (inactive)	29.4 µM (inactive)	17.2 µM (inactive)	26 µM (inactive)	23.9 µM (inactive)	> 10 µM (inactive)	41.1 µM (inactive)	42.5 µM (inactive)	32.6 µM (inactive)	32.8 µM (inactive)	35.6 µM (inactive)	33.1 µM (inactive)	27.4 µM (inactive)	18.2 µM (inactive)	35.3 µM (inactive)	21.3 µM (inactive)	20.7 µM (inactive)
CC1(O)Oc2ccc3ccccc3c2C=C1C(N)=O (centres undefined)	> 100 µM (inactive)		49.2 µM (inactive)	> 100 µM (inactive)	28.1 µM (inactive)	> 100 µM (inactive)	> 100 µM (inactive)	54 µM (inactive)	72.9 µM (inactive)	80.5 µM (inactive)	77.1 µM (inactive)	> 100 µM (inactive)	> 100 µM (inactive)	> 100 µM (inactive)	> 100 µM (inactive)			
S=C(S)NCCN1CCNCC1	29.7 µM (inactive)	59.7 µM (inactive)	19.8 µM (inactive)	> 100 µM (inactive)	> 100 µM (inactive)	62.1 µM (inactive)	18 µM (inactive)	57.1 µM (inactive)	> 100 µM (inactive)	39.5 µM (inactive)	75.9 µM (inactive)	20.7 µM (inactive)	20.7 µM (inactive)	> 100 µM (inactive)	< 0.01 µM (active)	49.2 µM (inactive)	> 100 µM (inactive)	25.4 µM (inactive)
CNC(=S)NN=C1NCCCCN1	> 100 µM (inactive)	> 100 µM (inactive)	> 100 µM (inactive)	83.9 µM (inactive)	> 100 µM (inactive)	> 100 µM (inactive)	> 100 µM (inactive)	> 100 µM (inactive)	> 100 µM (inactive)	29.2 µM (inactive)	> 100 µM (inactive)	> 100 µM (inactive)	> 100 µM (inactive)	> 100 µM (inactive)	> 100 µM (inactive)		> 100 µM (inactive)	> 100 µM (inactive)
O=C(C(Cl)=C(N1CCCCC1)N1CCCCC1)C(Cl)Cl	> 100 µM (inactive)	> 100 µM (inactive)	> 100 µM (inactive)	> 100 µM (inactive)	> 100 µM (inactive)	> 100 µM (inactive)	> 100 µM (inactive)	> 100 µM (inactive)	> 100 µM (inactive)	21.4 µM (inactive)	> 100 µM (inactive)	> 100 µM (inactive)	> 100 µM (inactive)	> 100 µM (inactive)	> 100 µM (inactive)	> 100 µM (inactive)		> 100 µM (inactive)
COP(=O)(OC)/C(=C/c1c[nH]c2ccccc12)C(=O)O	> 100 µM (inactive)	> 100 µM (inactive)	> 100 µM (inactive)	> 100 µM (inactive)	> 100 µM (inactive)	> 100 µM (inactive)	> 100 µM (inactive)	> 100 µM (inactive)	> 100 µM (inactive)	> 100 µM (inactive)	> 100 µM (inactive)		> 100 µM (inactive)	> 100 µM (inactive)	> 100 µM (inactive)	> 100 µM (inactive)	> 100 µM (inactive)	> 100 µM (inactive)
Cc1cc(C)c2c(c1)C1=NCCN1C2(O)c1ccc(Cl)cc1 (centres undefined)	13.9 µM (inactive)	16.5 µM (inactive)	13.6 µM (inactive)	16.4 µM (inactive)	15.2 µM (inactive)	16.7 µM (inactive)	15.1 µM (inactive)	16.1 µM (inactive)	15.5 µM (inactive)	15.1 µM (inactive)	7.35 µM (inactive)	17.1 µM (inactive)	15.6 µM (inactive)	16.2 µM (inactive)	19.9 µM (inactive)	16.5 µM (inactive)	16.5 µM (inactive)	
Cc1ccc(Nc2nc(C)c(C(=O)CC(=O)C(=O)Nc3ccc(Cl)cc3)s2)cc1	> 100 µM (inactive)		> 100 µM (inactive)	> 100 µM (inactive)	> 100 µM (inactive)	> 100 µM (inactive)	> 100 µM (inactive)	> 100 µM (inactive)		> 100 µM (inactive)	> 100 µM (inactive)	> 100 µM (inactive)	> 100 µM (inactive)	> 100 µM (inactive)	> 100 µM (inactive)	> 100 µM (inactive)	> 100 µM (inactive)	76.6 µM (inactive)
CC(C)=CCC[C@]1(C)C=Cc2c(O)c3c(c(CC=C(C)C)c2O1)O[C@]12C(=C[C@@H]4CC1C(C)(C)O[C@@]2(C/C=C(/C)C(=O)O)C4=O)C3=O	1.33 µM (inactive)	0.461 µM (active)	0.5 µM (active)	0.673 µM (active)	1.73 µM (inactive)	1.03 µM (active)		1.67 µM (inactive)	2.38 µM (inactive)	0.973 µM (active)	1.78 µM (inactive)	2.31 µM (inactive)	0.452 µM (active)	2.12 µM (inactive)	0.285 µM (active)	0.719 µM (active)	1.5 µM (inactive)	1.19 µM (inactive)
NC(Cc1nnn[nH]1)C(=O)O (centres undefined)		> 100 µM (inactive)	> 100 µM (inactive)	> 100 µM (inactive)	> 100 µM (inactive)	> 100 µM (inactive)	> 100 µM (inactive)	> 100 µM (inactive)	> 100 µM (inactive)	> 100 µM (inactive)	> 100 µM (inactive)	> 100 µM (inactive)	> 100 µM (inactive)	> 100 µM (inactive)		> 100 µM (inactive)	> 100 µM (inactive)	> 100 µM (inactive)
Cc1[nH]c(/C=C2\C(=O)Nc3ccccc32)c(C)c1CCC(=O)O [ORANTINIB]	32.7 µM (inactive)		29.1 µM (inactive)	37.9 µM (inactive)	55 µM (inactive)	36.5 µM (inactive)	20.6 µM (inactive)	28.5 µM (inactive)	33.6 µM (inactive)	22.1 µM (inactive)	21.8 µM (inactive)	23.7 µM (inactive)	25.7 µM (inactive)	53.5 µM (inactive)		31 µM (inactive)	27.5 µM (inactive)	21.2 µM (inactive)
COc1ccc2nc3cc([N+](=O)[O-])ccc3c(NNc3ccccc3)c2c1	31.4 µM (inactive)	13.8 µM (inactive)	47.9 µM (inactive)	26.5 µM (inactive)	0.0681 µM (active)	29.6 µM (inactive)	10.8 µM (inactive)	16 µM (inactive)	60.7 µM (inactive)		19.8 µM (inactive)	1.19 µM (inactive)	17.3 µM (inactive)	56.4 µM (inactive)	18.7 µM (inactive)	30.2 µM (inactive)	2.07 µM (inactive)	20.3 µM (inactive)
Cc1ccc(C2(c3ccc(F)cc3)OC(=O)c3ccccc32)c(O)c1 (centres undefined)	5.5 µM (inactive)	17.7 µM (inactive)		20.1 µM (inactive)	19.6 µM (inactive)	12.4 µM (inactive)	21.1 µM (inactive)	16 µM (inactive)	17 µM (inactive)	11.6 µM (inactive)	16.6 µM (inactive)	15.6 µM (inactive)	13.6 µM (inactive)	16.6 µM (inactive)	14 µM (inactive)	14.7 µM (inactive)	14.4 µM (inactive)	> 10 µM (inactive)
CCOC(=O)c1cc(C2=C(S)N(CC(C)CC)CC2)c(C(=O)CC)[nH]1 (centres undefined)	16.8 µM (inactive)	22.4 µM (inactive)	20.7 µM (inactive)	26.9 µM (inactive)	15.6 µM (inactive)	15.5 µM (inactive)	11 µM (inactive)	17.5 µM (inactive)	14.5 µM (inactive)	12.9 µM (inactive)	19.7 µM (inactive)	17.4 µM (inactive)	6.01 µM (inactive)	19.1 µM (inactive)	5.36 µM (inactive)	18.7 µM (inactive)		11.1 µM (inactive)
CSC(=S)NN=C1CCCC1.CSC(=S)NN=C1CCCC1.[Zn+2]	13.4 µM (inactive)	19.5 µM (inactive)	28.4 µM (inactive)	29.2 µM (inactive)	> 100 µM (inactive)	28.4 µM (inactive)	34.6 µM (inactive)	55.1 µM (inactive)	52.5 µM (inactive)	46.7 µM (inactive)	0.0415 µM (active)	24 µM (inactive)	17.1 µM (inactive)	40.9 µM (inactive)		17.9 µM (inactive)	31.3 µM (inactive)	12.5 µM (inactive)

From ChEMBL document CHEMBL1201862, “PubChem BioAssay data set” (2004)
